According to doi:10.1101/2021.09.30.462449v1 (biorxiv, 2021):

Experiments:
Test in all cases: biochemical
Conditions in all cases: read-out: % inhibition mean (Z'Lyte)
PRKCA (PKC alpha) = PRKCA (PKC alpha) (Homo sapiens, UniProt P17252)
MYLK2 (skMLCK) = MYLK2 (skMLCK) (Homo sapiens, UniProt Q9H1R3)
ALK = ALK (Homo sapiens, UniProt Q9UM73)
FLT4 (VEGFR3) = FLT4 (VEGFR3) (Homo sapiens, UniProt P35916)
JAK3 = JAK3 (Homo sapiens, UniProt P52333)
EGFR (ErbB1) L858R = EGFR (ErbB1) L858R (Homo sapiens, UniProt P00533, L858R)
RET S891A = RET S891A (Homo sapiens, UniProt P07949, S891A)
ABL1 Y253F = ABL1 Y253F (Homo sapiens, UniProt P00519, Y253F)
STK4 (MST1) = STK4 (MST1) (Homo sapiens, UniProt Q13043)
MAP4K4 (HGK) = MAP4K4 (HGK) (Homo sapiens, UniProt O95819)
Chain of MAP4K4 (HGK) (O95819 whole entry): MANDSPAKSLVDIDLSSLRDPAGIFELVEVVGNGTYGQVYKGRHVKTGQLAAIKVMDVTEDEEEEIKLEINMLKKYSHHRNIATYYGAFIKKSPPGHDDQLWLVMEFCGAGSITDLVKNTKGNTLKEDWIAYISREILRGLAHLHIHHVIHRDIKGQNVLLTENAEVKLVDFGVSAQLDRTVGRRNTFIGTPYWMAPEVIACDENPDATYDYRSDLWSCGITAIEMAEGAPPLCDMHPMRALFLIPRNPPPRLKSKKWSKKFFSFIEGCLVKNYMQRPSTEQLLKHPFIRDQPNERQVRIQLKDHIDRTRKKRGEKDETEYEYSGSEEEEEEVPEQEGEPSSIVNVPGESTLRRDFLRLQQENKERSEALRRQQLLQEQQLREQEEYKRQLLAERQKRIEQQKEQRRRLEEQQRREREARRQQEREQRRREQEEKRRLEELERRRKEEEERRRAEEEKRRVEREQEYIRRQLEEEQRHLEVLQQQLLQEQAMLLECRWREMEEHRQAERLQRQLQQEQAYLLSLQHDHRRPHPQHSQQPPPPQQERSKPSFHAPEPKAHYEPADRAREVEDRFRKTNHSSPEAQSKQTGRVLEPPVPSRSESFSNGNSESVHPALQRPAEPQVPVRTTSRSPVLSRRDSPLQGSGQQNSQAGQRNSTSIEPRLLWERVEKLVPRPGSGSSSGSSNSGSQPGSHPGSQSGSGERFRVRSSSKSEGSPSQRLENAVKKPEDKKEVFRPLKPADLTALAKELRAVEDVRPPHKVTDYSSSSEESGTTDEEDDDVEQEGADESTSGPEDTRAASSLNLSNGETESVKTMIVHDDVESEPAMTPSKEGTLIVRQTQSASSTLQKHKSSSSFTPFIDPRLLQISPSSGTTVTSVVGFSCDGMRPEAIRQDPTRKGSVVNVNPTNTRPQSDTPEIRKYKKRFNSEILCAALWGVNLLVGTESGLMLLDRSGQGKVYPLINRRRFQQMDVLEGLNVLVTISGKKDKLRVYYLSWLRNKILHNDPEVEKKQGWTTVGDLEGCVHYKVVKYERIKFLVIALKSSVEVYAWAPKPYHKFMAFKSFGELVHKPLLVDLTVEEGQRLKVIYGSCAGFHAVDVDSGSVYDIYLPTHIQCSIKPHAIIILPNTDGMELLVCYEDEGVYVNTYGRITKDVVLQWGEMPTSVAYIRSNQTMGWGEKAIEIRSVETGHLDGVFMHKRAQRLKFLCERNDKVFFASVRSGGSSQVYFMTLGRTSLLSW

EPHA5 = EPHA5 (Homo sapiens, UniProt P54756)
Chain of EPHA5 (P54756 whole entry): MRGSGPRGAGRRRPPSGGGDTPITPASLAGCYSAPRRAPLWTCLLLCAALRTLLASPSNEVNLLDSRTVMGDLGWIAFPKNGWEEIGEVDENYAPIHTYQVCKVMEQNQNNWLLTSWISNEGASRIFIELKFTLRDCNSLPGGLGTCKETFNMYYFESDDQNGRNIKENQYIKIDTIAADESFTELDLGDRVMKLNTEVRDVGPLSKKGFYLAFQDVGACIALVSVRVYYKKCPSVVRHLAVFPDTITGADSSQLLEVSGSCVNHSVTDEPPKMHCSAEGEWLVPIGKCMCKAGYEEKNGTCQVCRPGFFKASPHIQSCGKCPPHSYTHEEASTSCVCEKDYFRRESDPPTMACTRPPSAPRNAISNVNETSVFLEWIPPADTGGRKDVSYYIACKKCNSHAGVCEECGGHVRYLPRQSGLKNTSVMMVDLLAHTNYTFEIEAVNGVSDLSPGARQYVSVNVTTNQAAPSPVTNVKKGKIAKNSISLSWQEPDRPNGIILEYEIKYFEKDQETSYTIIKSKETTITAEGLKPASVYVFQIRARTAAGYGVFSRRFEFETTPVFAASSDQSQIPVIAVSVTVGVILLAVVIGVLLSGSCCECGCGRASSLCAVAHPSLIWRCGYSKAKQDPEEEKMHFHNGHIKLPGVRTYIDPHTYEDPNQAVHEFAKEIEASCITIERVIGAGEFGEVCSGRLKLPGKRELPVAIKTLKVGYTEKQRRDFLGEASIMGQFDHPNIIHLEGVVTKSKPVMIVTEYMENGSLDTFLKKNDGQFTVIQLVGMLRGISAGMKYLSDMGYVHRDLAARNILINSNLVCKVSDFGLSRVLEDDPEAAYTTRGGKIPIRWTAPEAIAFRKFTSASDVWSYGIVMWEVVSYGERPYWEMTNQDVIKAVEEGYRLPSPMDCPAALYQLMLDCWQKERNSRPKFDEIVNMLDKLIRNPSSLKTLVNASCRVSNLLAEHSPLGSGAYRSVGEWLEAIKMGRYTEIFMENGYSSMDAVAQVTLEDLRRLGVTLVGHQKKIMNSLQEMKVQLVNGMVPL

MAP2K1 (MEK1) = MAP2K1 (MEK1) (Homo sapiens, UniProt Q02750)
EPHA1 = EPHA1 (Homo sapiens, UniProt P21709)
SYK = SYK (Homo sapiens, UniProt P43405)
CSNK2A1 (CK2 alpha 1) = CSNK2A1 (CK2 alpha 1) (Homo sapiens, UniProt P68400)
CDK17/cyclin Y = CDK17/cyclin Y (Homo sapiens, UniProt Q00537)
EPHA4 = EPHA4 (Homo sapiens, UniProt P54764)
BRSK1 (SAD1) = BRSK1 (SAD1) (Homo sapiens, UniProt Q8TDC3)
PRKG2 (PKG2) = PRKG2 (PKG2) (Homo sapiens, UniProt Q13237)
MAP3K9 (MLK1) = MAP3K9 (MLK1) (Homo sapiens, UniProt P80192)
PLK2 = PLK2 (Homo sapiens, UniProt Q9NYY3)
PIM3 = PIM3 (Homo sapiens, UniProt Q86V86)
CSNK1G2 (CK1 gamma 2) = CSNK1G2 (CK1 gamma 2) (Homo sapiens, UniProt P78368)
SGK (SGK1) = SGK (SGK1) (Homo sapiens, UniProt O00141)
Chain of SGK (SGK1) (O00141 whole entry): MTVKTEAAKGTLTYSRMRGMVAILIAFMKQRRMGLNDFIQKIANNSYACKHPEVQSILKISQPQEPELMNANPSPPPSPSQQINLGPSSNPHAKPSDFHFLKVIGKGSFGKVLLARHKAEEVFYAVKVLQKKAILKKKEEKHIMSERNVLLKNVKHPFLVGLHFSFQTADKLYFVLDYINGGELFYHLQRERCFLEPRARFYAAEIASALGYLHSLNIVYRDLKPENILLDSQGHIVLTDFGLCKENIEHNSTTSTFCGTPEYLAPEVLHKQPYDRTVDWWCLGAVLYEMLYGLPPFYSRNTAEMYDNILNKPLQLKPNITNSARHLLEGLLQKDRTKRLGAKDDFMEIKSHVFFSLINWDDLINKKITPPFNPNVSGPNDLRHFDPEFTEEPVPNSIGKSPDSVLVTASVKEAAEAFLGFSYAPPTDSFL

MET (cMet) = MET (cMet) (Homo sapiens, UniProt P08581)
FGFR3 K650E = FGFR3 K650E (Homo sapiens, UniProt P22607, K650E)
Chain of FGFR3 K650E (P22607 whole entry K650E): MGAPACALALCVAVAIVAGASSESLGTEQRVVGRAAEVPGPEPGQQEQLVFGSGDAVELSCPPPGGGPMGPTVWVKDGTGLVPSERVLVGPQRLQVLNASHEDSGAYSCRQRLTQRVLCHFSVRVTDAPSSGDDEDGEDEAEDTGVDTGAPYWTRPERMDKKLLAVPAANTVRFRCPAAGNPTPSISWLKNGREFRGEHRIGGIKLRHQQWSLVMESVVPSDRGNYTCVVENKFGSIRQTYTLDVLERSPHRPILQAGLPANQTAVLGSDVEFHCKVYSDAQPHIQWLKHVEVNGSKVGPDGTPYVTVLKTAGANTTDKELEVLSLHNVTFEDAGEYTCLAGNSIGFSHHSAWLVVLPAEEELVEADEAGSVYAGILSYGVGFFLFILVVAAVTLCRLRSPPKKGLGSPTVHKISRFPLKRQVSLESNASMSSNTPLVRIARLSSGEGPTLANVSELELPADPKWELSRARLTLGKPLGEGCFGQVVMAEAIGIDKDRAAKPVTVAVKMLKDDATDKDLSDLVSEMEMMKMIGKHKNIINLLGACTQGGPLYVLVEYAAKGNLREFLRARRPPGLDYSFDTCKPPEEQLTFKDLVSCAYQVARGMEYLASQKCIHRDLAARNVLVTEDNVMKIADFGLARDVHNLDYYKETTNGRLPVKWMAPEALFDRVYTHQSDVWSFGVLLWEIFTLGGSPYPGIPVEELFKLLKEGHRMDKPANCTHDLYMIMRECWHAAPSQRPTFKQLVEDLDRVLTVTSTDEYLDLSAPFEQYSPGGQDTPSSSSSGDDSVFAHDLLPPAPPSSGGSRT

SRPK1 = SRPK1 (Homo sapiens, UniProt Q96SB4)
NTRK1 (TRKA) = NTRK1 (TRKA) (Homo sapiens, UniProt P04629)
Chain of NTRK1 (TRKA) (P04629 whole entry): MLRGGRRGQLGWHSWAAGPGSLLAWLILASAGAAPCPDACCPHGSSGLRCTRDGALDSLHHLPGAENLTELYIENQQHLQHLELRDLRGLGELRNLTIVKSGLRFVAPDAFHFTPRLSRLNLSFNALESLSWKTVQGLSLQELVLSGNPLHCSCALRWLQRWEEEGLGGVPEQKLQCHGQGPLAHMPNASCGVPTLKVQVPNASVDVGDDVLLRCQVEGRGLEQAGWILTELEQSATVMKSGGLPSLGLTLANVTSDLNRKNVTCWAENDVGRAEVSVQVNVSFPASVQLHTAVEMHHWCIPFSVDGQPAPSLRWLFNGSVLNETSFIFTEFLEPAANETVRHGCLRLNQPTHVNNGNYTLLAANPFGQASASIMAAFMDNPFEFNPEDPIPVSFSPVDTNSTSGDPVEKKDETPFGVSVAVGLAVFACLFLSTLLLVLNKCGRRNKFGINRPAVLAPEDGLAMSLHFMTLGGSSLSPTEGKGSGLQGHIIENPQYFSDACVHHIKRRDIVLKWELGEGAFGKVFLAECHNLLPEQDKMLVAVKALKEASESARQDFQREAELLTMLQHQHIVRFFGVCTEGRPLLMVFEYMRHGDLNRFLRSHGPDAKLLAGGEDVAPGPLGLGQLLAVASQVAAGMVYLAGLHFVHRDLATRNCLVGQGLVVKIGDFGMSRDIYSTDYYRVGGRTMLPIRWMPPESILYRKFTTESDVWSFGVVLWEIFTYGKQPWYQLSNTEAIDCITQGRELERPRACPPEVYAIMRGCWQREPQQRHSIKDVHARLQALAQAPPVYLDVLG

BRAF = BRAF (Homo sapiens, UniProt P15056)

Chain of MYLK2 (skMLCK) (Q9H1R3 whole entry): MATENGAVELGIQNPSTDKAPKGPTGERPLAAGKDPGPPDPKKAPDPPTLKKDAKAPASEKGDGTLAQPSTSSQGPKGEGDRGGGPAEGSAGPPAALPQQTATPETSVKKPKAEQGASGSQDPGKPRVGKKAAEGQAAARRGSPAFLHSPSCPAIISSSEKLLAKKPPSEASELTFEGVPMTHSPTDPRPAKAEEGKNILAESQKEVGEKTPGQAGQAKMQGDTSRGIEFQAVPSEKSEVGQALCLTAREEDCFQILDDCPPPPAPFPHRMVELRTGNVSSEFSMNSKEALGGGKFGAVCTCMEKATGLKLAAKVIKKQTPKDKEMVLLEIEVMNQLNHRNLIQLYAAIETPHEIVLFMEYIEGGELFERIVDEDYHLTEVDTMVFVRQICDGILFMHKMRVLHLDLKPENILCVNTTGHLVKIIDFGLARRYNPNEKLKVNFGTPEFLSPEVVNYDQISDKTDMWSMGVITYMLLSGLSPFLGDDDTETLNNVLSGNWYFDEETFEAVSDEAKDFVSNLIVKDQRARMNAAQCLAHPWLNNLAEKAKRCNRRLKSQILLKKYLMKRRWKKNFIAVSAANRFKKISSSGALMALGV

COc1ccc2nc3cc(Cl)ccc3c(Nc3cc(CN4CCCC4)c(O)c(CN4CCCC4)c3)c2n1 [Pyronaridine, 4-[(7-Chloro-2-methoxybenzo[b][1,5]naphthyridin-10-yl)amino]-2,6-bis(1-pyrrolidinylmethyl)phenol phosphate (1:4)] showed an inhibition at 1 µM (PRKCA (PKC alpha)) of 13%, an inhibition at 1 µM (MYLK2 (skMLCK)) of 7% and an inhibition at 1 µM (ALK) of -1%. It also gave an inhibition at 1 µM (FLT4 (VEGFR3)) of 3%, an inhibition at 1 µM (JAK3) of 1% and an inhibition at 1 µM (EGFR (ErbB1) L858R) of 5%. It also gave an inhibition at 1 µM (RET S891A) of -3%, an inhibition at 1 µM (ABL1 Y253F) of -1% and an inhibition at 1 µM (STK4 (MST1)) of -5%. The inhibition at 1 µM (MAP4K4 (HGK)) was 1%, the inhibition at 1 µM (EPHA5) was -3% and the inhibition at 1 µM (MAP2K1 (MEK1)) was -2%. For the same compound, the inhibition at 1 µM (EPHA1) was 1%, the inhibition at 1 µM (SYK) was 1% and the inhibition at 1 µM (CSNK2A1 (CK2 alpha 1)) was 7%. It also gave an inhibition at 1 µM (CDK17/cyclin Y) of -2%, an inhibition at 1 µM (EPHA4) of -2% and an inhibition at 1 µM (BRSK1 (SAD1)) of 2%. It also gave an inhibition at 1 µM (PRKG2 (PKG2)) of 1%, an inhibition at 1 µM (MAP3K9 (MLK1)) of 17% and an inhibition at 1 µM (PLK2) of 5%. The inhibition at 1 µM (PIM3) was 12%, the inhibition at 1 µM (CSNK1G2 (CK1 gamma 2)) was 4% and the inhibition at 1 µM (SGK (SGK1)) was 4%. The inhibition at 1 µM (MET (cMet)) was -1%, the inhibition at 1 µM (FGFR3 K650E) was -4% and the inhibition at 1 µM (SRPK1) was 1%. For the same compound, the inhibition at 1 µM (NTRK1 (TRKA)) was 19% and the inhibition at 1 µM (BRAF) was 4%.
